Consider 3 compounds from patent US20220370636A1, “NICOTINAMIDE ADENINE DINUCLEOTIDE ACTIVATOR AND USE THEREOF” (University of South Florida, priority 2021, published 2022).

Assay [1] has as its target recombinant Nampt (Homo sapiens, UniProt P43490). Briefly: Recombinant Nampt enzymatic activity assay. Particulars: enzyme assay with recombinant Nampt.
Assay [2] has as its system PI3K. The assay is described as follows: Ex vivo ischemia reperfusion with PI3K inhibitor LY294002, pAKT Western blot. Also on record: species or system mice. Particulars: WT hearts; LY294002 15 μM prior to global ischemia.
In assay [3] the test system is C57Bl/6J mice on a high-fat diet. Particulars: cited from earlier work.

Chain of recombinant Nampt (P43490 whole entry, the tested form may be a part): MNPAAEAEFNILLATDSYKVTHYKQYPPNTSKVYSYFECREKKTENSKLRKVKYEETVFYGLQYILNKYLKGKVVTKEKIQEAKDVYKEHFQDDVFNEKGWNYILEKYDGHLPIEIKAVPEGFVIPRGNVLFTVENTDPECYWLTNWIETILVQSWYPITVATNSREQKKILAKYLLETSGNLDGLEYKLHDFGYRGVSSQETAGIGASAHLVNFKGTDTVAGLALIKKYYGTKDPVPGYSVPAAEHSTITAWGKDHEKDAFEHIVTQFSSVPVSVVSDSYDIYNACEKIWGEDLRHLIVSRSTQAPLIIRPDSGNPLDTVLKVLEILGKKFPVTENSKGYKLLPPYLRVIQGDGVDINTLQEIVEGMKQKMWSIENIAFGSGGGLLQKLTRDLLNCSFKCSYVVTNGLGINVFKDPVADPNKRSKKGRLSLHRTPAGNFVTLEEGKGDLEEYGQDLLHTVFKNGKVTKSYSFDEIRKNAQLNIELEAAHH

As to `O=C(/C=C/c1cccnc1)NCCCCC1CCN(C(=O)c2ccccc2)CC1` [FK866], the Nampt activity entry in assay [1] is listed as “significantly decreased”.
As for `Cl.O=c1cc(N2CCOCC2)oc2c(-c3ccccc3)cccc12` [LY294002, 2-(4-Morpholinyl)-8-phenyl-1(4H)-benzopyran−4-one hydrochloride], the “P7C3 based pAkt expression” value in assay [2] was “attenuated”.
With `COc1cccc(NCC(F)Cn2c3ccc(Br)cc3c3cc(Br)ccc32)c1` (stereo not drawn) [P7C3 A20], the fatty liver syndrome result in assay [3] is given as “rescued”.
